The values that follow come from ChEMBL document CHEMBL6153078, “Design, synthesis, and biological evaluation of imidazolidinone derivatives as potent PPARα/δ agonists for the treatment of cholestatic liver diseases” (Eur J Med Chem, 2025).

Common to all, as to type: cell-based
Assay [1] addresses T1, Peroxisome proliferator-activated receptor alpha (Homo sapiens, UniProt Q07869).
T1 sequence (Q07869 whole entry): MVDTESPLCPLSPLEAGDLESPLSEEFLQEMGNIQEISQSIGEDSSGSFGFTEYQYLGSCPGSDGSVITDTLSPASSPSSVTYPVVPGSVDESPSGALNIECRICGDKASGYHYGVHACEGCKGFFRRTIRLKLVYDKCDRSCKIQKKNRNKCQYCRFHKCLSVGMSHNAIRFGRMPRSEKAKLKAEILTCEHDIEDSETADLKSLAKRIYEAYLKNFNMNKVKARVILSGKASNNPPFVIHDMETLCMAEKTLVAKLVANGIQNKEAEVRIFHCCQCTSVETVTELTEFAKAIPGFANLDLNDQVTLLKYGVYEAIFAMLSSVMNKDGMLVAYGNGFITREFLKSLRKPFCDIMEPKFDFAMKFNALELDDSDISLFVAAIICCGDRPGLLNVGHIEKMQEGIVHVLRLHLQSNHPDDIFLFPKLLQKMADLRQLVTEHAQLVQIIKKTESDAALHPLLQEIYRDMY
The experiment in a line: Agonist activity at GAL4-fused human PPAR-alpha transfected in African green monkey COS7 cells assessed transcriptional activation incubated for 16 hrs by Luciferase assay.

Assay [2] addresses T2, Peroxisome proliferator-activated receptor delta (Homo sapiens, UniProt Q03181).
T2 sequence (Q03181 whole entry): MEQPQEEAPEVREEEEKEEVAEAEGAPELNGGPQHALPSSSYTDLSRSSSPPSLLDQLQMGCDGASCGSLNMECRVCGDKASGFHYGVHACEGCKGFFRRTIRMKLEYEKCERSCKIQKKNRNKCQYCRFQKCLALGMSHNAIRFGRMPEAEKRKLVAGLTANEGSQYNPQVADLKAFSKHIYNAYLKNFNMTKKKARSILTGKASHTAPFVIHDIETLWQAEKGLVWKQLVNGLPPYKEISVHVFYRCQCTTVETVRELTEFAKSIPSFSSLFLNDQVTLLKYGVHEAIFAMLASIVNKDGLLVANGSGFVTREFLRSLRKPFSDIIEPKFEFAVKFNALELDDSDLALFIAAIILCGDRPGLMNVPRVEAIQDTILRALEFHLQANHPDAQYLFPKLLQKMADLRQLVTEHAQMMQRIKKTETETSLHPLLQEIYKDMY
The experiment in a line: Agonist activity at GAL4-fused human PPAR-delta transfected in African green monkey COS7 cells assessed transcriptional activation incubated for 16 hrs by Luciferase assay.

Assay [3] deals with T3, Peroxisome proliferator-activated receptor gamma (Homo sapiens, UniProt P37231).
T3 sequence (P37231 whole entry): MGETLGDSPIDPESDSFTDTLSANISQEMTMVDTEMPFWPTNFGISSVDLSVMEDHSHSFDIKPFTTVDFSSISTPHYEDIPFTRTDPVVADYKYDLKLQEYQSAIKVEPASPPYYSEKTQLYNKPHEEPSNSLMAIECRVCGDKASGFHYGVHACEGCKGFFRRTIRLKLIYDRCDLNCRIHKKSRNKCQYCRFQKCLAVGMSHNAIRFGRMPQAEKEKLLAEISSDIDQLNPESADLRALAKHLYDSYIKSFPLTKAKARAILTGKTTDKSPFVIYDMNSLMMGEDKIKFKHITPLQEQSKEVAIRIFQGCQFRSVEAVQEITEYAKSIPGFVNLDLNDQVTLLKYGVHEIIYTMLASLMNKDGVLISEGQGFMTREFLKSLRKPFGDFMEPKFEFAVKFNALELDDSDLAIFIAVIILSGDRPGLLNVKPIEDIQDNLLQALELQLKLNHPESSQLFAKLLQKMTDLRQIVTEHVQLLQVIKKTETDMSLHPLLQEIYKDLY
The experiment in a line: Agonist activity at GAL4-fused human PPAR-gamma transfected in African green monkey COS7 cells assessed transcriptional activation incubated for 16 hrs by Luciferase assay.

SMILES strings stand for the structures.

As for `Cc1cc(CN2CCN(c3ccc(OC(F)(F)F)cc3)C2=O)cc(C)c1OC(C)(C)C(=O)O`, the EC50 (commonly the concentration needed to bring the measured effect to its halfway point) in assay [1] was 4.7 nM; in assay [2], 36.9 nM; in assay [3], 416 nM.
For `Cc1cc(CN2CCN(c3cccc(C(F)(F)F)c3)C2=O)cc(C)c1OC(C)(C)C(=O)O` the same measures were 14.2 nM, 40.9 nM and 884 nM.
`Cc1cc(CN2CCN(c3ccccc3C(F)(F)F)C2=O)cc(C)c1OC(C)(C)C(=O)O`: the EC50 in assay [1] and in assay [2] was above 5000 nM each time.
On to `CSc1ccc(C(=O)/C=C/c2cc(C)c(OC(C)(C)C(=O)O)c(C)c2)cc1` [ELAFIBRANOR], for which the results for the EC50 in assay [1] and in assay [3] were 888 nM and 1570 nM, respectively.
`Cc1cc(Cn2ncn(-c3ccc(OC(F)(F)F)cc3)c2=O)cc(C)c1OC(C)(C)C(=O)O` registered an EC50 in assay [1] of 8.5 nM.
The compound `CC(C)(Oc1ccc(CN2CCN(c3ccc(C(F)(F)F)cc3)C2=O)cc1)C(=O)O` came in with an EC50 in assay [3] above 5000 nM.
`Cc1cc(CN2CCN(c3ccc(Cl)cc3)C2=O)cc(C)c1OC(C)(C)C(=O)O` displayed an EC50 in assay [1] of 1020 nM.
In the case of `COc1ccc(N2CCN(Cc3cc(C)c(OC(C)(C)C(=O)O)c(C)c3)C2=O)cc1`, the results for the EC50 in assay [1], in assay [2] and in assay [3] were 121 nM, 263 nM and 2580 nM, respectively.
`Cc1cc(CN2CCN(c3ccc(C(F)(F)F)cc3)C2=O)ccc1OC(C)(C)C(=O)O`: the results for the EC50 in assay [1] and in assay [3] were 175 nM and above 5000 nM, respectively.
With `Cc1cc(CN2CCN(c3ccccc3)C2=O)cc(C)c1OC(C)(C)C(=O)O`, the results for the EC50 in assay [1] and in assay [2] were 436 nM and 260 nM, respectively.
With `Cc1ccc(N2CCN(Cc3cc(C)c(OC(C)(C)C(=O)O)c(C)c3)C2=O)cc1`, the EC50 in assay [1] was 40.4 nM; in assay [3] it was 1200 nM.
Take `CCc1ccc(N2CCN(Cc3cc(C)c(OC(C)(C)C(=O)O)c(C)c3)C2=O)cc1`: the EC50 was determined as 7.3 nM in assay [1] and 1290 nM in assay [3].
Regarding `Cc1cc(CN2CCN(c3ccc(C(C)(C)C)cc3)C2=O)cc(C)c1OC(C)(C)C(=O)O`, in assay [2], the EC50 was above 5000 nM.
As for `Cc1cc(CN2CCN(c3ccc(F)cc3)C2=O)cc(C)c1OC(C)(C)C(=O)O`, the EC50 turned out to be 89.5 nM in assay [1], 39 nM in assay [2] and 2130 nM in assay [3].
Compound `Cc1cc(CN2CCN(c3ccc(C(C)C)cc3)C2=O)cc(C)c1OC(C)(C)C(=O)O` yielded an EC50 in assay [2] of 69.6 nM.
